Data taken from patent publication US20240327361A1, “RADIOLABELED COMPOSITIONS AND METHODS OF USE THEREOF” (The Research Foundation for the State University of New York, priority 2021, published 2024).

Assays:
Class-I HDAC = assay: Cell-based deacetylase assay in HT-29 cells, class-I/IIb selective substrate Boc-Lys-Ac; settings: whole-cell assay, 200 μM Boc-Lys-Ac (class-I/IIb selective substrate), 3 h at 37° C.
Procedure: (§1) Cell-based deacetylase assay. The cell-based assay was conducted similar to the previous work (Lobera M 2013; Luckhurst C A 2019) Briefly, compounds were diluted in 5 uL DMSO (11-point concentration curve, 5% final DMSO) and were added to 96 wells with positive (5 μM Trichostatin A (TSA)) and negative control (5 uL DMSO) wells. HT-29 cells (obtained from ATCC) with the addition of either 100 μM Boc-Lys-TFA (class-IIa selective substrate) or 200 μM Boc-Lys-Ac (class-I/IIb selective substrate) were plated into 96 well plates at 200,000 cells/well in 45 uL cellular assay buffer (RPMI without phenol red, 0.1% Fetal Bovine Serum) and were incubated for 3 h at 37° C. The deacetylation achieved by the addition of 50 uL HDAC developer solution (2.5 mg/ml trypsin in DMEM without Fetal Bovine Serum and 10% tween 80) for a further 1 h to sensitize the substrate and to lyse the cells. Fluorescent counts were read with microplate reader at an excitation wavelength of 360 nm and detection of emitted light of 460 nm.

Class-lla HDAC = assay: Cell-based deacetylase assay in HT-29 cells, class-IIa selective substrate Boc-Lys-TFA; settings: whole-cell assay, 100 μM Boc-Lys-TFA (class-IIa selective substrate), 3 h at 37° C.
Procedure: as §1, with “The cell-based assay was conducted similar to the previous work (Lobera M 2013; Luckhurst C A 2019) Briefly, compounds were diluted in 5 uL DMSO (11-point concentration curve, 5% final DMSO) and were added to 96 wells with positive (5 μM Trichostatin A (TSA)) and negative control (5 uL DMSO) wells.” left out

[1] = Stability of the tracer in its injection formulation; assay type: physicochemical; settings: ethanol:polysorbate 80:saline (10:10:80%), 37° C.
Procedure: Anesthetized Sprague Dawley rats (200-250 g, N=6) were placed in the Inveon uPET (Siemens, Knoxville, TN) in the supine position with the skull positioned in the center of the field of view. [^18F]-NT160 was formulated in ethanol:polysorbate 80:saline (10:10:80%) and it was stable in this formulation at 37° C. at least for 4 hours. [^18F]-NT160 (18.5-25.9 MBq/animal) was administered via the tail-vein injection in a total volume 0.5-1.0 ml. Dynamic PET images were obtained over 60 minutes followed by CT imaging (15 min scan). Images were reconstructed with attenuation correction using an ordered subset expectation maximization (OSEM2D) algorithm with 16 subsets and 4 iterations. […] The time-activity curve (TAC) was generated from the region of interest (ROI) by plotting the radioactivity/cc vs time. Levels of accumulation of the radiotracer in tissues were expressed as standard uptake values (SUV) that were calculated for the regions of interest (ROI) using the AMIDE software. The SUV is defined as the ratio of the tissue radioactivity concentration C (e.g. expressed as Bq/g tissue) at given time point post injection T, and the injected dose (e.g. in Bq, decay-corrected to the same time T), and normalized by the body weight in grams. […]

class-lla HDACs = assay: In vivo microPET imaging of healthy rats (biodistribution, self-blocking with cold TMP195); design: species or system Sprague Dawley rats; settings: for biodistribution / uptake in brain regions: rat brain PET
Procedure: Sprague Dawley rats (200-250 g, N=3,) were anesthetized with 3% isoflurane in oxygen and maintained at 2% isoflurane in oxygen throughout the imaging studies. Anesthetized rat was placed in the uPET (Siemens, Knoxville, TN) with the skull positioned in the center of the field of view. The tracer (500-700 μCi/animal) was administered intravenously into each Rat (n=3 per group) in a total volume 0.5-1.0 ml solution. Dynamic PET images were obtained over 60 minutes. Images were reconstructed with attenuation correction using an ordered subset expectation maximization (OSEM2D) algorithm with 16 subsets and 4 iterations.
Dynamic PET images were analyzed with Inveon Research Workplace 4.0 (Siemens, Knoxville, TN) and AMIDE software using manual segmentation of regions of interest (ROI), were drawn over ROI on the decay-corrected coronal images. The radioactivity accumulation (tracer uptake) within the ROI were obtained as percentage of the injected dose (ID) per gram of tissue (% ID/g). The time-activity curve (TAC) was generated from the region of interest (ROI) by plotting the radioactivity/cc vs time.
Anesthetized Sprague Dawley rats (200-250 g, N=6) were placed in the Inveon uPET (Siemens, Knoxville, TN) in the supine position with the skull positioned in the center of the field of view. [^18F]-NT160 was formulated in ethanol:polysorbate 80:saline (10:10:80%) and it was stable in this formulation at 37° C. at least for 4 hours. [^18F]-NT160 (18.5-25.9 MBq/animal) was administered via the tail-vein injection in a total volume 0.5-1.0 ml. Dynamic PET images were obtained over 60 minutes followed by CT imaging (15 min scan). Images were reconstructed with attenuation correction using an ordered subset expectation maximization (OSEM2D) algorithm with 16 subsets and 4 iterations. PET image analysis was performed using the AMIDE software by using manual segmentation of regions of interest (ROI), including: whole brain, cortex, hippocampus, thalamus, cerebellum, and brain stem. Rat Brain Atlas was used for alignment and identification of specific anatomical markers of the brain. The time-activity curve (TAC) was generated from the region of interest (ROI) by plotting the radioactivity/cc vs time. Levels of accumulation of the radiotracer in tissues were expressed as standard uptake values (SUV) that were calculated for the regions of interest (ROI) using the AMIDE software. The SUV is defined as the ratio of the tissue radioactivity concentration C (e.g. expressed as Bq/g tissue) at given time point post injection T, and the injected dose (e.g. in Bq, decay-corrected to the same time T), and normalized by the body weight in grams. GraphPad Prism (Graph Pad Software La Jolla, CA) was used for image data analysis. [^18F]-NT2-160 was also prepared by the same or similar procedure.

[2] = Partition coefficient, octanol/PBS shake flask method; assay type: physicochemical; settings: phosphate buffer pH 7.4
Procedure: The log P was determined by partitioning the tracer between octanol and phosphate buffer at pH 7.4 and measuring the concentration of the tracer in each layer. The radioactivity of each layer is counted using gamma-counter. The partition coefficient (P) is calculated as [radioactivity (cpm/ml) in 1-octanol)]/[(radioactivity (cpm/ml) in phosphate buffer pH 7.4].

[3] = rat, co-administered TMP195 2 mg/kg

| Structure (SMILES) | IC50 (Class-I HDAC) [nM] | IC50 (Class-lla HDAC) [nM] | further results |
| --- | --- | --- | --- |
| O=C(NC1CCCN(Cc2ccccc2)C1)c1ccc(-c2noc(C(F)(F)F)n2)cc1 (stereo not shown) [NT2-190] | > 50000 | > 10000 |  |
| O=C(NC1CCN(Cc2ccc(I)cc2)C1)c1ccc(-c2noc(C(F)(F)F)n2)cc1 (stereo not shown) [NT3-39] | > 50000 | 295 |  |
| C[C@H](CN(C)Cc1ccccc1)NC(=O)c1ccc(-c2noc(C(F)(F)F)n2)cc1F [NT3-76] | > 5000 | 32 |  |
| O=C(NC1CCN(Cc2cccc(F)c2)C1)c1ccc(-c2noc(C(F)(F)F)n2)cc1F (stereo not shown) [NT3-77B] | > 10000 | 195 |  |
| CN1CCC(NC(=O)c2ccc(-c3noc(C(F)(F)F)n3)cc2F)C1 (stereo not shown) [NT3-75] | > 3000 | 72 |  |
| CC(CN(C)Cc1ccccc1)NC(=O)c1ccc(-c2noc(C(F)(F)F)n2)cc1 (stereo not shown) [NT2-191] | > 50000 |  |  |
| O=C(NC1CCN(CCc2ccccc2)C1)c1ccc(-c2noc(C(F)(F)F)n2)cc1 (stereo not shown) [NT3-106C] | > 50000 | > 10000 |  |
| CC(C)(CNC(=O)c1ccc(-c2noc(C(F)(F)F)n2)cc1)c1coc(-c2ccccc2)n1 [NT-134] | > 15000 | > 5000 |  |
| CN(Cc1ccccc1)C(=O)C(C)(C)CNC(=O)c1cccc(-c2noc(C(F)(F)F)n2)c1 [NT3-118] | > 50000 | > 50000 |  |
| CC(C)(NCc1ccccc1)C(=O)CNC(=O)c1ccc(-c2noc(C(F)(F)F)n2)cc1 [NT2-44] | > 15000 | 768 ± 190 |  |
| COC[C@@H](NC(=O)c1ccc(-c2noc(C(F)(F)F)n2)cc1)C(=O)NCc1ccccc1 [NT-176] | > 15000 | 537 ± 150 |  |
| C[C@@H](NC(=O)c1ccc(-c2noc(C(F)(F)F)n2)cc1)C(=O)NCc1ccccc1 [NT2-67] | > 15000 | 953 |  |
| C[C@H](CN(C)Cc1ccccc1)NC(=O)c1ccc(-c2noc(C(F)(F)[18F])n2)cc1 [[^18F]-NT160] |  |  | stable in formulation [1]: ≥ 4 h |
| C[C@@H](CN1CC[C@H](c2ccccc2)C1)NC(=O)c1ccc(-c2noc(C(F)(F)F)n2)cc1 [NT3-16D] | > 25000 | 5 |  |
| O=C(NC1CCN(CCF)C1)c1ccc(-c2noc(C(F)(F)F)n2)cc1 (stereo not shown) [NT3-123] | > 50000 | > 10000 |  |
| O=C(NC1CCN(Cc2ccccc2)C1)c1ccc(-c2noc(C(F)(F)F)n2)cc1 (stereo not shown) [NT2-160] | > 20000 |  |  |
| O=C(NC1CCN(Cc2ccc(F)cc2)C1)c1ccc(-c2noc(C(F)(F)F)n2)cc1 (stereo not shown) [NT3-40] | > 20000 | 142 |  |
| O=C(NC1CCN(Cc2ccccc2)C1)c1ccc(-c2noc(C(F)(F)[18F])n2)cc1 (stereo not shown) [[^18F]-NT2-160] |  |  | biodistribution / uptake in brain regions (class-lla HDACs): heterogenous |
| CN(Cc1ccccc1)C(=O)C(C)(C)CNC(=O)c1ccc(-c2noc(C(F)(F)F)n2)cc1 [NT3-119] | > 15000 | 933 ± 260 |  |

| Structure (SMILES) | IC50 (Class-I HDAC) [nM] | IC50 (Class-lla HDAC) [nM] | further results |
| --- | --- | --- | --- |
| CCN1CC[C@@H](NC(=O)c2ccc(-c3noc(C(F)(F)Cl)n3)cc2)C1 [NT3-92] | > 50000 | > 20000 |  |
| O=C(NC1CCN(Cc2ccccc2)C1)c1ccc(-c2noc(C(F)(F)F)n2)cc1F (stereo not shown) [NT3-77] | > 10000 | 152 |  |
| O=C(NC1CCN(Cc2ccc(F)cc2)C1)c1ccc(-c2noc(C(F)(F)F)n2)cc1F (stereo not shown) [NT3-77C] | > 10000 | 173 |  |
| O=C(NC1CCN(Cc2ccccc2F)C1)c1ccc(-c2noc(C(F)(F)F)n2)cc1 (stereo not shown) [NT3-132B] | > 50000 | 300 |  |
| CN(Cc1ccccc1)C(=O)CCNC(=O)c1ccc(-c2noc(C(F)(F)F)n2)cc1 [NT-174] | > 15000 | 905 ± 220 |  |
| COC[C@@H](NC(=O)c1ccc(-c2noc(C(F)(F)F)n2)cc1)C(=O)NCc1ccc(F)cc1 [NT2-156] | > 15000 | 233 ± 110 |  |
| CN(Cc1ccccc1)C(=O)CCNC(=O)c1cccc(-c2noc(C(F)(F)F)n2)c1 [NT-175] | > 50000 | > 50000 |  |
| CC(C)(CNC(=O)c1cccc(-c2noc(C(F)(F)[18F])n2)c1)c1coc(-c2ccccc2)n1 [^18F-NT57] |  |  | logD [2]: > 6; tracer uptake in the harderian gland (class-lla HDACs; rat): neither specific nor unique; biodistribution / uptake in brain regions (class-lla HDACs): heterogeneous; uptake in the wrist (class-lla HDACs; rat, baseline and blocking with TMP195): intense and blockable; uptake in the brown fat adipose tissues (BATs) (class-lla HDACs; rat, cervical and interscapular BAT, 60 min): intense and increased uptake; brain uptake with cold dose of TMP195 vs baseline (self-blocking) (class-lla HDACs; [3]): reduced; tracer uptake in BATs with cold dose of TMP195 (blocking) (class-lla HDACs; [3]): reduced; accumulation in the liver (class-lla HDACs; rat, dynamic PET over 60 min): accumulated heavily; clearance from most normal tissues (heart, brain, muscle) (class-lla HDACs; rat, dynamic PET over 60 min): rapid clearance; peak uptake in the brain (class-lla HDACs; rat, intravenous tracer, dynamic PET over 60 min): ~1 % ID/g; tracer uptake in the muscle (class-lla HDACs; rat, not affected by blocking): low and nonspecific |
| CCN1CCC(NC(=O)c2ccc(-c3noc(C(F)(F)F)n3)cc2F)C1 (stereo not shown) [NT3-81] | > 5000 | 137 |  |
| C[C@H](CN(C)Cc1ccc(F)cc1)NC(=O)c1ccc(-c2noc(C(F)(F)F)n2)cc1 [NT3-11D] | > 15000 | 59 ± 16 |  |
| O=C(NC1CCN(c2ccccc2)C1)c1ccc(-c2noc(C(F)(F)F)n2)cc1 (stereo not shown) [NT2-174] | > 50000 | > 20000 |  |
| O=C(NC1CCN(Cc2ccccc2I)C1)c1ccc(-c2noc(C(F)(F)F)n2)cc1 (stereo not shown) [NT3-127B] | > 50000 | 1000 |  |
| COC[C@@H](NC(=O)c1ccc(-c2noc(C(F)(F)F)n2)nc1)C(=O)NCc1ccccc1 [NT-192] | > 15000 | 1710 ± 330 |  |
| O=C(NC1CCN(Cc2ccccc2F)C1)c1ccc(-c2noc(C(F)(F)F)n2)cc1F (stereo not shown) [NT3-77A] | > 10000 | 179 |  |
| C[C@H](NC(=O)c1ccc(-c2noc(C(F)(F)F)n2)cc1)C(=O)N1CC[C@H](c2ccccc2)C1 [NT3-52B] | > 50000 | > 1000 |  |
| C[C@H](CN(C)Cc1ccccc1)NC(=O)c1ccc(-c2noc(C(F)(F)Cl)n2)cc1 [NT3-89B] | > 2000 | > 2000 |  |
| O=C(NC1CCN(CCc2ccccc2F)C1)c1ccc(-c2noc(C(F)(F)F)n2)cc1 (stereo not shown) [NT3-102C] | > 50000 | > 10000 |  |
| CCN1CCC(NC(=O)c2ccc(-c3noc(C(F)(F)F)n3)cc2)C1 (stereo not shown) [NT3-83] | > 9000 | 91 |  |
